Tests used:
[1] = wn = mass fraction of the nth substance listed; conditions: 101 kPa, w1 = 0.561; for viscosity: Capillary tube (Ostwald / Ubbelohde) method; for mass density: Vibrating tube method
[2] = molar heat capacity at constant pressure; wn = mass fraction of the nth substance listed; conditions: 101 kPa, w1 = 0.561

O=[N+]([O-])[O-].[Li+] [lithium nitrate] + O
Conditions | mass density [kg/m3] | molar heat capacity at constant pressure [J/K/mol] | thermal conductivity [W/m/K] | viscosity [mPa·s]
[1], 253.2 K, Crystal of intercomponent compound 1, Hot disk method | – | – | 0.76 | –
[1], 263.2 K, Crystal of intercomponent compound 1, Hot disk method | – | – | 0.74 | –
[1], 273.2 K, Crystal of intercomponent compound 1, Hot disk method | – | – | 0.77 | –
[1], 283.2 K, Crystal of intercomponent compound 1, Hot disk method | – | – | 0.76 | –
[1], 293.2 K, Crystal of intercomponent compound 1, Hot disk method | – | – | 0.75 | –
[1], 294.2 K, Crystal of intercomponent compound 1, Hot disk method | – | – | 0.82 | –
[1], 308.2 K, Liquid | 1425 | – | – | 5.34
[1], 313.2 K, Liquid | 1420 | – | – | 4.8
[1], 318.2 K, Liquid | 1413 | – | – | 4.37
[1], 323.2 K, Liquid | 1408 | – | – | 3.96
[1], 328.2 K, Liquid | 1402 | – | – | 3.6
[1], 333.2 K, Liquid | 1395 | – | – | 3.31
[1], 338.2 K, Liquid | 1390 | – | – | 3.06
[1], 343.2 K, Liquid | 1384 | – | – | 2.84
[1], 348.2 K, Liquid | 1378 | – | – | 2.63
[1], 353.2 K, Liquid | 1372 | – | – | 2.46
[2], 253.2 K, Crystal of intercomponent compound 1, Small sample (50 mg) DSC | – | 48.92 | – | –
[2], 263.2 K, Crystal of intercomponent compound 1, Small sample (50 mg) DSC | – | 50.15 | – | –
[2], 273.2 K, Crystal of intercomponent compound 1, Small sample (50 mg) DSC | – | 51.38 | – | –
[2], 283.2 K, Crystal of intercomponent compound 1, Small sample (50 mg) DSC | – | 52.61 | – | –
[2], 288.2 K, Crystal of intercomponent compound 1, Small sample (50 mg) DSC | – | 53.22 | – | –

Liquid
Conditions | molar heat capacity at constant pressure [J/K/mol] | thermal conductivity [W/m/K]
[1], 308.2 K, hot wire | – | 0.584
[1], 313.2 K, hot wire | – | 0.581
[1], 318.2 K, hot wire | – | 0.587
[1], 323.2 K, hot wire | – | 0.583
[1], 328.2 K, hot wire | – | 0.585
[1], 333.2 K, hot wire | – | 0.588
[1], 338.2 K, hot wire | – | 0.588
[1], 343.2 K, hot wire | – | 0.588
[1], 348.2 K, hot wire | – | 0.595
[1], 353.2 K, hot wire | – | 0.611
[2], 308.2 K, hot wire method | 89.52 | –
[2], 313.2 K, Small sample (50 mg) DSC | 84.91 | –
[2], 313.2 K, hot wire method | 89.52 | –
[2], 318.2 K, hot wire method | 90.45 | –
[2], 323.2 K, Small sample (50 mg) DSC | 85.22 | –
[2], 323.2 K, hot wire method | 90.45 | –
[2], 328.2 K, hot wire method | 91.06 | –
[2], 333.2 K, Small sample (50 mg) DSC | 84.91 | –
[2], 333.2 K, hot wire method | 91.68 | –
[2], 338.2 K, hot wire method | 91.99 | –
[2], 343.2 K, Small sample (50 mg) DSC | 85.22 | –
[2], 343.2 K, hot wire method | 92.29 | –
[2], 348.2 K, hot wire method | 93.22 | –
[2], 353.2 K, Small sample (50 mg) DSC | 84.91 | –
[2], 353.2 K, hot wire method | 94.45 | –
